# Test results published in PubChem BioAssay (NCI).
#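 Method: 48-hour compound exposure of cells in 96-well plates, five concentrations, linear interpolation of endpoints. At the GI50, growth is halved. The concentration for full growth arrest is given as TGI.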
# What was measured:
# Assay in all cases: NCI-60 cell line screen, 48 h
# ACHN renal = system: ACHN renal
# MCF7 breast = system: MCF7 breast
# OVCAR-4 ovarian = system: OVCAR-4 ovarian
# HCT-15 colon = system: HCT-15 colon
# NCI-H226 lung = system: NCI-H226 lung
# SNB-75 CNS = system: SNB-75 CNS
# T-47D breast = system: T-47D breast
# MDA-MB-231 breast = system: MDA-MB-231 breast
# SK-MEL-28 melanoma = system: SK-MEL-28 melanoma
# IGROV1 ovarian = system: IGROV1 ovarian
# HS 578T breast = system: HS 578T breast
# CCRF-CEM leukemia = system: CCRF-CEM leukemia
# SK-OV-3 ovarian = system: SK-OV-3 ovarian
# RPMI-8226 leukemia = system: RPMI-8226 leukemia
# RXF 393 renal = system: RXF 393 renal
# HCC-2998 colon = system: HCC-2998 colon
# NCI-H460 lung = system: NCI-H460 lung
# LOX IMVI melanoma = system: LOX IMVI melanoma
# SNB-19 CNS = system: SNB-19 CNS
# KM12 colon = system: KM12 colon
# BT-549 breast = system: BT-549 breast
# MDA-MB-435 = system: MDA-MB-435
# EKVX NSCLC = system: EKVX NSCLC
# SF-295 CNS = system: SF-295 CNS
# HT29 colon = system: HT29 colon
# PC-3 prostate = system: PC-3 prostate
# TK-10 renal = system: TK-10 renal
# MALME-3M melanoma = system: MALME-3M melanoma
# 786-0 renal = system: 786-0 renal
# SK-MEL-5 melanoma = system: SK-MEL-5 melanoma
# HCT-116 colon = system: HCT-116 colon
# SR leukemia = system: SR leukemia
# SF-268 CNS = system: SF-268 CNS
# SK-MEL-2 melanoma = system: SK-MEL-2 melanoma
# SF-539 CNS = system: SF-539 CNS
# A498 renal = system: A498 renal
# NCI/ADR-RES ovarian = system: NCI/ADR-RES ovarian
# DU-145 prostate = system: DU-145 prostate
# OVCAR-5 ovarian = system: OVCAR-5 ovarian
# NCI-H23 lung = system: NCI-H23 lung
# UACC-257 melanoma = system: UACC-257 melanoma
# NCI-H522 lung = system: NCI-H522 lung
# CAKI-1 renal = system: CAKI-1 renal
# U251 CNS = system: U251 CNS
# SW-620 colon = system: SW-620 colon
# HOP-92 NSCLC = system: HOP-92 NSCLC
# SN12C renal = system: SN12C renal
# OVCAR-8 ovarian = system: OVCAR-8 ovarian
# OVCAR-3 ovarian = system: OVCAR-3 ovarian
# UO-31 renal = system: UO-31 renal
# UACC-62 melanoma = system: UACC-62 melanoma
# K-562 leukemia = system: K-562 leukemia
# A549 NSCLC = system: A549 NSCLC
# HL-60(TB) leukemia = system: HL-60(TB) leukemia
# HOP-62 NSCLC = system: HOP-62 NSCLC
# MOLT-4 leukemia = system: MOLT-4 leukemia
# COLO 205 colon = system: COLO 205 colon
compound,measurement,setting,value
C[C@]12CC[C@H](O)C[C@@H]1CC[C@@H]1[C@@H]2CC[C@@]2(C)[C@H]1CC[C@@H]2[C@](C)(O)CCc1ccc(F)cc1,GI50,ACHN renal,5.81 µM
same,TGI,ACHN renal,18.9 µM
same,GI50,MCF7 breast,2.55 µM
same,TGI,MCF7 breast,15 µM
same,GI50,OVCAR-4 ovarian,1.77 µM
same,TGI,OVCAR-4 ovarian,18.4 µM
same,GI50,HCT-15 colon,3.82 µM
same,TGI,HCT-15 colon,18.3 µM
same,GI50,NCI-H226 lung,5.97 µM
same,TGI,NCI-H226 lung,24.8 µM
same,GI50,SNB-75 CNS,4.07 µM
same,TGI,SNB-75 CNS,26.9 µM
same,GI50,T-47D breast,1.95 µM
same,TGI,T-47D breast,45.1 µM
same,GI50,MDA-MB-231 breast,5.33 µM
same,TGI,MDA-MB-231 breast,20.5 µM
same,GI50,SK-MEL-28 melanoma,12.3 µM
same,TGI,SK-MEL-28 melanoma,26.4 µM
same,GI50,IGROV1 ovarian,6.04 µM
same,TGI,IGROV1 ovarian,20.7 µM
same,GI50,HS 578T breast,7.71 µM
same,TGI,HS 578T breast,37.9 µM
same,GI50,CCRF-CEM leukemia,4.56 µM
same,TGI,CCRF-CEM leukemia,59.7 µM
same,GI50,SK-OV-3 ovarian,16.1 µM
same,TGI,SK-OV-3 ovarian,76.2 µM
same,GI50,RPMI-8226 leukemia,2.4 µM
same,TGI,RPMI-8226 leukemia,43.9 µM
same,GI50,RXF 393 renal,2.46 µM
same,TGI,RXF 393 renal,10.8 µM
same,GI50,HCC-2998 colon,9.79 µM
same,TGI,HCC-2998 colon,23.8 µM
same,GI50,NCI-H460 lung,3.38 µM
same,TGI,NCI-H460 lung,14 µM
same,GI50,LOX IMVI melanoma,3.41 µM
same,TGI,LOX IMVI melanoma,15.1 µM
same,GI50,SNB-19 CNS,10.5 µM
same,TGI,SNB-19 CNS,25.1 µM
same,GI50,KM12 colon,4.22 µM
same,TGI,KM12 colon,19.4 µM
same,GI50,BT-549 breast,3.85 µM
same,TGI,BT-549 breast,17.5 µM
same,GI50,MDA-MB-435,7.84 µM
same,TGI,MDA-MB-435,25 µM
same,GI50,EKVX NSCLC,2.27 µM
same,TGI,EKVX NSCLC,18.1 µM
same,GI50,SF-295 CNS,2.43 µM
same,TGI,SF-295 CNS,10.9 µM
same,GI50,HT29 colon,6.42 µM
same,TGI,HT29 colon,36.7 µM
same,GI50,PC-3 prostate,5.02 µM
same,TGI,PC-3 prostate,30.7 µM
same,GI50,TK-10 renal,16.7 µM
same,TGI,TK-10 renal,56.4 µM
same,GI50,MALME-3M melanoma,17.9 µM
same,TGI,MALME-3M melanoma,41.8 µM
same,GI50,786-0 renal,6.14 µM
same,TGI,786-0 renal,21 µM
same,GI50,SK-MEL-5 melanoma,1.32 µM
same,TGI,SK-MEL-5 melanoma,6.81 µM
same,GI50,HCT-116 colon,3.65 µM
same,TGI,HCT-116 colon,16.4 µM
same,GI50,SR leukemia,2.11 µM
same,TGI,SR leukemia,22.3 µM
same,GI50,SF-268 CNS,8.46 µM
same,TGI,SF-268 CNS,25.4 µM
same,GI50,SK-MEL-2 melanoma,11.4 µM
same,TGI,SK-MEL-2 melanoma,51.9 µM
same,GI50,SF-539 CNS,6.94 µM
same,TGI,SF-539 CNS,20.8 µM
same,GI50,A498 renal,2.4 µM
same,TGI,A498 renal,15.6 µM
same,GI50,NCI/ADR-RES ovarian,2.87 µM
same,TGI,NCI/ADR-RES ovarian,13.9 µM
same,GI50,DU-145 prostate,7.14 µM
same,TGI,DU-145 prostate,23.7 µM
same,GI50,OVCAR-5 ovarian,5.64 µM
same,TGI,OVCAR-5 ovarian,19.6 µM
same,GI50,NCI-H23 lung,3.78 µM
same,TGI,NCI-H23 lung,18.4 µM
same,GI50,UACC-257 melanoma,4.53 µM
same,TGI,UACC-257 melanoma,35.5 µM
same,GI50,NCI-H522 lung,4.45 µM
same,TGI,NCI-H522 lung,49.4 µM
same,GI50,CAKI-1 renal,5.43 µM
same,TGI,CAKI-1 renal,20.1 µM
same,GI50,U251 CNS,10.9 µM
same,TGI,U251 CNS,31 µM
same,GI50,SW-620 colon,7.13 µM
same,TGI,SW-620 colon,24.1 µM
same,GI50,HOP-92 NSCLC,4.22 µM
same,TGI,HOP-92 NSCLC,22.5 µM
same,GI50,SN12C renal,3.79 µM
same,TGI,SN12C renal,15.7 µM
same,GI50,OVCAR-8 ovarian,8.35 µM
same,TGI,OVCAR-8 ovarian,62.7 µM
same,GI50,OVCAR-3 ovarian,4.72 µM
same,TGI,OVCAR-3 ovarian,16.7 µM
same,GI50,UO-31 renal,4.43 µM
same,TGI,UO-31 renal,31.4 µM
same,GI50,UACC-62 melanoma,10.6 µM
same,TGI,UACC-62 melanoma,26.7 µM
same,GI50,K-562 leukemia,1.88 µM
same,TGI,K-562 leukemia,> 100 µM
same,GI50,A549 NSCLC,5.04 µM
same,TGI,A549 NSCLC,39.2 µM
same,GI50,HL-60(TB) leukemia,3.87 µM
same,TGI,HL-60(TB) leukemia,24 µM
same,GI50,HOP-62 NSCLC,13.1 µM
same,TGI,HOP-62 NSCLC,43.9 µM
same,GI50,MOLT-4 leukemia,3.21 µM
same,TGI,MOLT-4 leukemia,24.6 µM
same,GI50,COLO 205 colon,8.81 µM
same,TGI,COLO 205 colon,42.4 µM
